Measured values reported in patent US20230128304A1, “BENZIMIDAZOLE COMPOUND FOR THE TREATMENT OF METABOLIC DISORDERS” (ACHÉ LABORATÓRIOS FARMACÊUTICOS S.A., priority 2020, published 2023).

Experiments:
[1] = tested on: SD rats maintained on a high fat diet (HFD); test: Liver histopathology (NAFLD activity score) in HFD model; assay type: in vivo, Sprague Dawley (SD) rats
Protocol: (§1) The parameters were assessed following a chronic oral treatment with compound I at 10 and 30 mg/kg, dapagliflozin at 5 mg/kg, or vehicle to animals receiving HFD. Vehicle was also administered to animals receiving normal chow. The liver triglycerides were quantified using Cobas C111 clinical analyzer TRIGL 04657594 190. Glycogen quantification in liver samples was performed using commercial kits (Thermo BioVision, Glycogen Assay Kit, K646-100). Data is shown as means±SEM (A-D) or raw data including mean±SEM (E-H), n=9-10. The statistical analysis of liver triglycerides (A-B) and glycogen (C-D) was performed by general linear model of log transformed data (triglycerides only) with treatment and cohort as factors and termination order and BW on day 1 as covariates. Treatment groups were compared with HFD Vehicle by separate Williams' tests (compound I) or multiple t tests (dapagliflozin) and statistically significant differences are denoted by * (p<0.05), ** (p<0.01) and *** (p<0.001). Comparisons against Chow Vehicle were performed by multiple t tests (HFD Vehicle and dapagliflozin groups) or Dunnett's test (compound I) and statistically significant differences are denoted by † (p<0.05), †† (p<0.01) and ††† (p<0.001). Analysis of liver histopathology data (E-H) was done by exact Wilcoxon rank sum test. Statistical differences are denoted by * (p<0.05) in comparison with HFD Vehicle and by † (p<0.05), †† (p<0.01) and ††† (p<0.001) when compared with Chow Vehicle.
(§2) In the HFD model, animals were initially maintained on a HFD for 4 weeks to induce a significant body weight (BW) gain before treatment was initiated. […] Two vehicle-treated control groups, fed either normal chow (Chow Vehicle) or HFD (HFD Vehicle), were also included.
Liver was also assessed for NAFLD by histopathological analysis (FIGS. 3E-H). Samples were sectioned, stained and scored following a method previously described (Kleiner D E et al. (2005). Design and validation of a histological scoring system for nonalcoholic fatty liver disease. Hepatology. 41(6):1313-21; Nishida T et al. (2013). Spontaneous onset of nonalcoholic steatohepatitis and hepatocellular carcinoma in a mouse model of metabolic syndrome. Lab Invest. 93(2):230-41). The parameters analyzed were: steatosis (0-3), lobular inflammation (0-3) and hepatocellular ballooning (0-2). The total “NAFLD activity score” (NAS) score was calculated as the sum of all parameters (0-8). The liver of Chow Vehicle animals had no pathology scores (zero) for steatosis, lobular inflammation, hepatocellular ballooning and no score for total NAS.

[2] = tested on: SD rats maintained on a high fat diet (HFD); test: Weight of selected tissues in HFD model; assay type: in vivo, Sprague Dawley (SD) rats
Protocol: In the HFD model, animals were initially maintained on a HFD for 4 weeks to induce a significant body weight (BW) gain before treatment was initiated. […] Two vehicle-treated control groups, fed either normal chow (Chow Vehicle) or HFD (HFD Vehicle), were also included. The effects on body composition and on the weight of selected tissues (brown fat pad, epididymal fat pad, liver or gastrocnemius muscle) were assessed after the study was terminated (days 65/66). […] Body composition was determined using FoodScan™ near-infrared analyzer analysis, which assessed water, protein and fat content and the final carcass weight (Table 4).

[3] = tested on: SD rats maintained on a high fat diet (HFD); test: Body weight and food intake in HFD diet-induced obesity model; assay type: in vivo, Sprague Dawley (SD) rats; details: for Daily food intake compared with HFD Vehicle: compound II apart from isolated changes
Protocol: The benzimidazole compound of formula I, the comparative compound of formula II, and dapagliflozin were administered to animals fed HFD. Vehicle was administered to animals fed normal chow or HFD. Data is shown as adjusted means—SEM of n=9-10 animals (BW and BW gain) or n=5 cages (FI and average daily FI) per group. Data was analyzed by ANCOVA with BW on day 1 (A and C) or average FI during the baseline period (B and D) as covariate, excluding the Chow Vehicle group. Treatment groups were compared with HFD Vehicle by separate Williams' tests (compounds I or II) or multiple t tests (dapagliflozin) and considered statistically significant if p<0.05. Statistical significance is denoted as “a”, “b”, “c”, “d” and “e” for HFD groups treated respectively with dapagliflozin, compound II at 10 mg/kg, compound II at 30 mg/kg, compound I at 10 mg/kg and compound I at 30 mg/kg. # (p=0.051) and & (p=0.098) mean trends toward significance in comparisons with HFD Vehicle.
J Endocrinol. 234(3):255-267; Devenny J J et al. (2012). Weight loss induced by chronic dapagliflozin treatment is attenuated by compensatory hyperphagia in diet-induced obese (DIO) rats. Obesity. 20: 1645-1652.).
as §2

[4] = tested on: SD rats maintained on a high fat diet (HFD); test: Body composition (FoodScan near-infrared analyzer) in HFD model; assay type: in vivo, Sprague Dawley (SD) rats; details: for Fat / Final carcass weight / Protein / Water: adjusted means ± SEM; for Body composition parameters (water, protein, fat content, final carcass weight) against HFD Vehicle: 10 and 30 mg/kg
Protocol: as §2
The effects on body composition and on the weight of selected tissues (brown fat pad, epididymal fat pad, liver or gastrocnemius muscle) were assessed after the study was terminated (days 65/66). The weights of tissues were analyzed in two ways: i) BW on day 1 was used as a covariate to correct for differences in the BW at the start of the study or ii) the terminal BW (days 65/66) was used as a covariate to correct for changes due to weight loss (Table 3). […] Body composition was determined using FoodScan™ near-infrared analyzer analysis, which assessed water, protein and fat content and the final carcass weight (Table 4).

[5] = tested on: SD rats maintained on a high fat diet (HFD); test: Plasma glucose, insulin and HOMA-IR in HFD model; assay type: in vivo, Sprague Dawley (SD) rats
Protocol: as §2, with “Vehicle was administered to animals fed normal chow or HFD. The parameters were assessed on day 51. […] In” for “In”

[6] = tested on: SD rats maintained on a high fat diet (HFD); test: Liver triglycerides and glycogen in HFD model; assay type: in vivo, Sprague Dawley (SD) rats; details: 5 mg/kg
Protocol: as §1, with “Comparisons against Chow Vehicle were performed by multiple t tests (HFD Vehicle and dapagliflozin groups) or Dunnett's test (compound I) and statistically significant differences are denoted by † (p<0.05), †† (p<0.01) and ††† (p<0.001). Analysis of liver histopathology data (E-H) was done by exact Wilcoxon rank sum test. Statistical differences are denoted by * (p<0.05) in comparison with HFD Vehicle and by † (p<0.05), †† (p<0.01) and ††† (p<0.001) when compared with Chow Vehicle.” left out
As only the benzimidazole derivative of formula I according to the present invention, but not the comparative benzimidazole compound II, impacted BW gain, liver weight, plasma glucose levels and HOMA-IR in the HFD model, specific effects of compound I in the liver of the animals were evaluated in comparison with dapagliflozin and control groups. […]

MT1 receptor = MT1 receptor (Homo sapiens, UniProt P48039); test: cell-based; details: read-out: MT1 agonism I.A. (intrinsic activity)
[7] = 10 mg/kg, data adjusted for BW on day 1, mean ± SEM, in g (unit assumed)
[8] = 10 mg/kg, data adjusted for BW on day 65/66, mean ± SEM, in g (unit assumed)
[9] = 30 mg/kg, data adjusted for BW on day 1, mean ± SEM, in g (unit assumed)
[10] = 30 mg/kg, data adjusted for BW on day 65/66, mean ± SEM, in g (unit assumed)
[11] = 5 mg/kg, data adjusted for BW on day 1, mean ± SEM, in g (unit assumed)
[12] = 5 mg/kg, data adjusted for BW on day 65/66, mean ± SEM, in g (unit assumed)
[13] = 5 mg/kg p.o., day 51 after 4-hour fast, p<0.001

MT1 receptor, sequence (P48039 whole entry): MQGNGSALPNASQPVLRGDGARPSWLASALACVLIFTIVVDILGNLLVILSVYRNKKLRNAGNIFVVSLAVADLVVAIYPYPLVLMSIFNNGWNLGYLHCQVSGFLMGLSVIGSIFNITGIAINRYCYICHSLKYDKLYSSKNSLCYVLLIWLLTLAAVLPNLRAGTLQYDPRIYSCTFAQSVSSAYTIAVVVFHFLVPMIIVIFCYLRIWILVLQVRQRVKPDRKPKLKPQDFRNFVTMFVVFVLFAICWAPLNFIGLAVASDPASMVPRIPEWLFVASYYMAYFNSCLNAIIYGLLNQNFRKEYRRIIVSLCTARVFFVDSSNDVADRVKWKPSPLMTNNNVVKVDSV

For `COc1cc2c(cc1Cl)nc(OC)n2CCNC(C)=O` [Compound of formula I, N-[2-(5-Chloro-2,6-dimethoxy-benzoimidazol-1-yl)-ethyl]-acetamide], the “Steatosis score change compared to the HFD group” value ([1]; 30 mg/kg p.o., p<0.05) was −57%, the “Total NAS value versus HFD Vehicle” value ([1]; 30 mg/kg, p=0.126) was “trend toward significance” and the Lobular inflammation score ([1]; 30 mg/kg, no longer significantly different from the Chow Vehicle control) was “reduced”. For the same compound, the Liver weight ([2]; 10 mg/kg, data adjusted for BW on day 1, mean ± SEM) was 17.7 ± 0.8, the “Brown adipose tissue weight” value [2, 7] was 0.700 ± 0.091 and the “Epididymal fat pads weight” value [2, 7] was 13.1 ± 1.5. The Gastrocnemius weight [2, 7] was 3.30 ± 0.14, the “Brown adipose tissue weight” value [2, 8] was 0.719 ± 0.084 and the “Epididymal fat pads weight” value [2, 8] was 13.9 ± 1.1. For the same compound, the Gastrocnemius weight [2, 8] was 3.32 ± 0.15, the Liver weight [2, 8] was 18.5 ± 0.5 and the Liver weight ([2]; 30 mg/kg, data adjusted for BW on day 1, mean ± SEM) was 18.6 ± 0.9. For the same compound, the “Brown adipose tissue weight” value [2, 9] was 0.801 ± 0.066, the “Epididymal fat pads weight” value [2, 9] was 13.9 ± 1.0 and the Gastrocnemius weight [2, 9] was 3.35 ± 0.10. For the same compound, the “Brown adipose tissue weight” value [2, 10] was 0.808 ± 0.062, the “Epididymal fat pads weight” value [2, 10] was 14.2 ± 1.2 and the Gastrocnemius weight [2, 10] was 3.36 ± 0.10. The Liver weight [2, 10] was 18.9 ± 0.5, the “Liver weight compared to HFD Vehicle (in words)” value ([2]; both groups (10 and 30 mg/kg), corrected by the initial BW, p=0.12) was “trend toward liver weight reduction” and the “Body weight (BW) compared with HFD Vehicle” value ([3]; 10 and 30 mg/kg p.o., days 13 to 32, p<0.05) was “significantly reduced body weight (BW)”. The “BW gain from day 1 to 57 compared with HFD Vehicle” value ([3]; 10 and 30 mg/kg p.o., p=0.098) was “trend towards reduced BW gain”, the “Daily food intake compared with HFD Vehicle” value ([3]; 10 and 30 mg/kg) was “did not affect” and the Fat ([4]; 10 mg/kg) was 20.5 ± 1.5 %. The Final carcass weight ([4]; 10 mg/kg) was 561.7 ± 13.0^ g, the Protein ([4]; 10 mg/kg) was 19.7 ± 0.4% and the Water ([4]; 10 mg/kg) was 56.1 ± 1.2 %. The Fat ([4]; 30 mg/kg) was 20.0 ± 1.7 %, the Final carcass weight ([4]; 30 mg/kg) was 584.0 ± 13.6^ g and the Protein ([4]; 30 mg/kg) was 19.6 ± 0.5 %. For the same compound, the Water ([4]; 30 mg/kg) was 56.5 ± 1.4 % and the “Body composition parameters (water, protein, fat content, final carcass weight) against HFD Vehicle” value [4] was “No effect”.
With `CCOc1nc2cc(Cl)c(OC)cc2n1CCCNC(C)=O` [Compound of formula II, N-[3-(5-Chloro-2-ethoxy-6-methoxy-benzoimidazol-1-yl)-propyl]-acetamide] the “Daily BW gain” value ([3]; 10 and 30 mg/kg) was “no significant effects”, the “Daily food intake compared with HFD Vehicle” value ([3]; 10 and 30 mg/kg) was “did not affect” and the “HOMA-IR compared to HFD Vehicle (in words)” value ([5]; 10 and 30 mg/kg, day 51) was “did not alter”. The “Plasma glucose compared to HFD Vehicle (in words)” value ([5]; 10 and 30 mg/kg, day 51) was “did not alter”, the “Plasma insulin compared to HFD Vehicle (in words)” value ([5]; 10 and 30 mg/kg, day 51) was “did not alter” and the Fat ([4]; 10 mg/kg) was 20.8 ± 2.3 %. The Final carcass weight ([4]; 10 mg/kg) was 587.6 ± 6.3 g, the Protein ([4]; 10 mg/kg) was 19.2 ± 0.6 % and the Water ([4]; 10 mg/kg) was 56.0 ± 1.8 %. It also gave a Fat ([4]; 30 mg/kg) of 17.9 ± 2.3 %, a Final carcass weight ([4]; 30 mg/kg) of 593.3 ± 11.4 g and a Protein ([4]; 30 mg/kg) of 19.8 ± 0.5%. The Water ([4]; 30 mg/kg) was 58.4 ± 1.9^ % and the “Body composition parameters (water, protein, fat content, final carcass weight) against HFD Vehicle” value [4] was “No effect”.
`CCOc1ccc(Cc2cc([C@@H]3O[C@H](CO)[C@@H](O)[C@H](O)[C@H]3O)ccc2Cl)cc1` [Dapagliflozin] was tested, and the “Histopathology parameters (steatosis, lobular inflammation, hepatocellular ballooning, NAS) versus HFD Vehicle” value ([1]; 5 mg/kg) was “no effect”, the “Brown adipose tissue weight” value [2, 11] was 0.679 ± 0.047 and the “Epididymal fat pads weight” value [2, 11] was 12.2 ± 0.7. The Gastrocnemius weight [2, 11] was 3.34 ± 0.09, the Liver weight [2, 11] was 20.9 ± 0.5 and the Liver weight ([2]; 5 mg/kg, data adjusted for BW on day 65/66, mean ± SEM) was 21.6 ± 0.3. The “Brown adipose tissue weight” value [2, 12] was 0.697 ± 0.050, the “Epididymal fat pads weight” value [2, 12] was 13.0 ± 0.7 and the Gastrocnemius weight [2, 12] was 3.37 ± 0.09. For the same compound, the “Liver weight change compared to HFD Vehicle” value ([2]; 5 mg/kg, data corrected for the terminal BW, p<0.01) was “+10.8%”, the “Liver glycogen concentration compared to HFD Vehicle (in words)” value [6] was “No effect” and the “Liver glycogen content compared to HFD Vehicle (in words)” value [6] was “No effect”. The “HOMA-IR change compared to HFD Vehicle” value [5, 13] was −66.7%, the “Plasma glucose change compared to HFD Vehicle” value [5, 13] was −21.6% and the “Plasma insulin change compared to HFD Vehicle” value [5, 13] was −56.7%. The Fat ([4]; 5 mg/kg) was 16.8 ± 1.3^ %, the Final carcass weight ([4]; 5 mg/kg) was 564.5 ± 9.4 g and the Protein ([4]; 5 mg/kg) was 20.6 ± 0.4%. The Water ([4]; 5 mg/kg) was 58.9 ± 1.0^ %.
For `COc1ccc2[nH]cc(CCNC(C)=O)c2c1` [Melatonin, N-acetyl-5-methoxytryptamine], the Emax (MT1 receptor) was 100%.
